{"source": "patent US6465395B2", "about": "“Substituted methylene pyrazolinones and the herbicidal use thereof” (BASF Aktiengesellschaft, priority 2000, dated 2002)", "format_in_all_cases": "in vivo", "key": {"[1]": {"system": "GOSHI, Cotton, Gossypium hirsutum, L.", "assay": "Postemergence herbicidal evaluation", "settings": "crop (cotton)", "method": "(§1) The postemergence herbicidal activity of the compounds of the present invention is evaluated by the following tests. Seedling plants are grown in jiffy flats for about two weeks. The test compounds are dispersed in 80/20 (v/v) acetone/water mixtures containing 1.0% SUN-IT®II, a methylated seed oil, in sufficient quantities to provide the equivalent of about 0.006 kg/ha to 0.800 kg/ha of active compound when applied to the plants through a spray nozzle operating at 40 psi for a predetermined time. After spraying, the plants are placed on greenhouse benches and are cared for in accordance with conventional greenhouse procedures. Approximately two to three weeks after treatment, the seedling plants are examined and rated according to the rating system set forth below. Where more than one test is involved for a given compound, the data are averaged."}, "[2]": {"system": "IPOSS, Morningglory spp., Ipomoea spp.", "assay": "Postemergence herbicidal evaluation", "method": "as §1"}, "[3]": {"system": "ORYSAT, Rice, Tebonnet, Oryza sativa, (L.) Tebonnet", "assay": "Postemergence herbicidal evaluation", "settings": "crop (rice)", "method": "as §1"}, "[4]": {"system": "PANDI, Panicum, Fall, Panicum dichotomiflorum, Michx", "assay": "Postemergence herbicidal evaluation", "method": "as §1"}, "[5]": {"system": "SETVI, Foxtail, Green, Setaria viridis, (L.) Beau", "assay": "Postemergence herbicidal evaluation", "method": "as §1"}, "[6]": {"system": "ZEAMX, Corn, Field, Zea mays, L.", "assay": "Postemergence herbicidal evaluation", "settings": "crop (corn)", "method": "as §1"}, "[7]": {"system": "CHEAL, Lambsquarters, Chenopodium album, L.", "assay": "Postemergence herbicidal evaluation", "method": "as §1"}, "[8]": {"system": "AMBEL, Ragweed, Ambrosia artemisifolia, L.", "assay": "Postemergence herbicidal evaluation", "method": "as §1"}, "[9]": {"system": "ECHCG, Barnyardgrass, Echinochloa crus-galli, (L.) Beau", "assay": "Postemergence herbicidal evaluation", "method": "as §1"}, "[10]": {"system": "ABUTH, Velvetleaf, Abutilon theophrasti, Medic.", "assay": "Postemergence herbicidal evaluation", "method": "as §1"}, "[11]": {"system": "IPOSS, Morningglory spp., Ipomoea spp.", "assay": "Preemergence herbicidal evaluation", "excerpt": "(§2) The preemergence herbicidal activity of the test compounds of the present invention is exemplified by the following tests in which the seeds of a variety of monocotyledonous and dicotyledonous plants are separately mixed with potting soil and planted on top of approximately one inch of soil in separate pint cups. After planting, the cups are sprayed with the selected aqueous acetone solution containing test compound in sufficient quantity to provide the equivalent of about 0.0125 kg/ha to 0.800 kg/ha of test compound per cup. The treated cups are then placed on greenhouse benches, watered and cared for in accordance with conventional greenhouse procedures. Approximately two to four weeks after treatment, the tests are terminated and each cup is examined and rated according to the rating system provided in Example 12. When more than one test is performed for a given compound, the data are averaged."}, "[12]": {"system": "ORYSAT, Rice, Tebonnet, Oryza sativa, (L.) Tebonnet", "assay": "Preemergence herbicidal evaluation", "settings": "crop (rice)", "excerpt": "as §2"}, "[13]": {"system": "PANDI, Panicum, Fall, Panicum dichotomiflorum, Michx", "assay": "Preemergence herbicidal evaluation", "excerpt": "as §2"}, "[14]": {"system": "SETVI, Foxtail, Green, Setaria viridis, (L.) Beau", "assay": "Preemergence herbicidal evaluation", "excerpt": "as §2"}, "[15]": {"system": "ZEAMX, Corn, Field, Zea mays, L.", "assay": "Preemergence herbicidal evaluation", "settings": "crop (corn)", "excerpt": "as §2"}, "[16]": {"system": "GOSHI, Cotton, Gossypium hirsutum, L.", "assay": "Preemergence herbicidal evaluation", "settings": "crop (cotton)", "excerpt": "as §2"}, "[17]": {"system": "CHEAL, Lambsquarters, Chenopodium album, L.", "assay": "Preemergence herbicidal evaluation", "excerpt": "as §2"}, "[18]": {"system": "AMBEL, Ragweed, Ambrosia artemisifolia, L.", "assay": "Preemergence herbicidal evaluation", "excerpt": "as §2"}, "[19]": {"system": "ECHCG, Barnyardgrass, Echinochloa crus-galli, (L.) Beau", "assay": "Preemergence herbicidal evaluation", "excerpt": "as §2"}, "[20]": {"system": "ABUTH, Velvetleaf, Abutilon theophrasti, Medic.", "assay": "Preemergence herbicidal evaluation", "excerpt": "as §2"}}}
{"smiles": "CCCS/C(=C1/C=NN(CC)C1=O)c1ccc2c(c1C)/C(=N/OC)CCS2(=O)=O", "note": "[Example 8b, 1-Ethyl-4-[(Z)-(5-methyl-4-oxothiochroman-6-yl)(propythio)methylene]-2-pyrazolin-5-one 4′-[(E)-O-methyloxime], S,S-dioxide]", "values": [{"measurement": "Herbicide rating GOSHI", "setting": "[1]; 0.0500 kg/ha", "value": 0.0}, {"measurement": "Herbicide rating GOSHI", "setting": "[1]; 0.1000 kg/ha", "value": 0.0}, {"measurement": "Herbicide rating GOSHI", "setting": "[1]; 0.2000 kg/ha", "value": 0.0}, {"measurement": "Herbicide rating GOSHI", "setting": "[1]; 0.4000 kg/ha", "value": 4.0}, {"measurement": "Herbicide rating GOSHI", "setting": "[1]; 0.8000 kg/ha", "value": 4.5}, {"measurement": "Herbicide rating IPOSS", "setting": "[2]; 0.0500 kg/ha", "value": 0.0}, {"measurement": "Herbicide rating IPOSS", "setting": "[2]; 0.1000 kg/ha", "value": 0.0}, {"measurement": "Herbicide rating IPOSS", "setting": "[2]; 0.2000 kg/ha", "value": 0.0}, {"measurement": "Herbicide rating IPOSS", "setting": "[2]; 0.4000 kg/ha", "value": 0.0}, {"measurement": "Herbicide rating IPOSS", "setting": "[2]; 0.8000 kg/ha", "value": 0.0}, {"measurement": "Herbicide rating ORYSAT", "setting": "[3]; 0.0500 kg/ha", "value": 1.0}, {"measurement": "Herbicide rating ORYSAT", "setting": "[3]; 0.1000 kg/ha", "value": 1.7}, {"measurement": "Herbicide rating ORYSAT", "setting": "[3]; 0.2000 kg/ha", "value": 3.5}, {"measurement": "Herbicide rating ORYSAT", "setting": "[3]; 0.4000 kg/ha", "value": 1.5}, {"measurement": "Herbicide rating ORYSAT", "setting": "[3]; 0.8000 kg/ha", "value": 3.5}, {"measurement": "Herbicide rating PANDI", "setting": "[4]; 0.0500 kg/ha", "value": 2.0}, {"measurement": "Herbicide rating PANDI", "setting": "[4]; 0.1000 kg/ha", "value": 6.0}, {"measurement": "Herbicide rating PANDI", "setting": "[4]; 0.2000 kg/ha", "value": 7.0}, {"measurement": "Herbicide rating PANDI", "setting": "[4]; 0.4000 kg/ha", "value": 7.0}, {"measurement": "Herbicide rating PANDI", "setting": "[4]; 0.8000 kg/ha", "value": 6.0}, {"measurement": "Herbicide rating SETVI", "setting": "[5]; 0.0500 kg/ha", "value": 3.5}, {"measurement": "Herbicide rating SETVI", "setting": "[5]; 0.1000 kg/ha", "value": 3.5}, {"measurement": "Herbicide rating SETVI", "setting": "[5]; 0.2000 kg/ha", "value": 4.0}, {"measurement": "Herbicide rating SETVI", "setting": "[5]; 0.4000 kg/ha", "value": 9.0}, {"measurement": "Herbicide rating SETVI", "setting": "[5]; 0.8000 kg/ha", "value": 9.0}, {"measurement": "Herbicide rating ZEAMX", "setting": "[6]; 0.0500 kg/ha", "value": 0.0}, {"measurement": "Herbicide rating ZEAMX", "setting": "[6]; 0.1000 kg/ha", "value": 0.0}, {"measurement": "Herbicide rating ZEAMX", "setting": "[6]; 0.2000 kg/ha", "value": 0.0}, {"measurement": "Herbicide rating ZEAMX", "setting": "[6]; 0.4000 kg/ha", "value": 0.0}, {"measurement": "Herbicide rating ZEAMX", "setting": "[6]; 0.8000 kg/ha", "value": 0.0}, {"measurement": "Herbicide rating CHEAL", "setting": "[7]; 0.0500 kg/ha", "value": 7.0}, {"measurement": "Herbicide rating CHEAL", "setting": "[7]; 0.1000 kg/ha", "value": 8.0}, {"measurement": "Herbicide rating CHEAL", "setting": "[7]; 0.2000 kg/ha", "value": 8.0}, {"measurement": "Herbicide rating CHEAL", "setting": "[7]; 0.4000 kg/ha", "value": 9.0}, {"measurement": "Herbicide rating CHEAL", "setting": "[7]; 0.8000 kg/ha", "value": 9.0}, {"measurement": "Herbicide rating AMBEL", "setting": "[8]; 0.0500 kg/ha", "value": 0.0}, {"measurement": "Herbicide rating AMBEL", "setting": "[8]; 0.1000 kg/ha", "value": 5.0}, {"measurement": "Herbicide rating AMBEL", "setting": "[8]; 0.2000 kg/ha", "value": 7.0}, {"measurement": "Herbicide rating AMBEL", "setting": "[8]; 0.4000 kg/ha", "value": 7.0}, {"measurement": "Herbicide rating AMBEL", "setting": "[8]; 0.8000 kg/ha", "value": 7.0}, {"measurement": "Herbicide rating ECHCG", "setting": "[9]; 0.0500 kg/ha", "value": 6.5}, {"measurement": "Herbicide rating ECHCG", "setting": "[9]; 0.1000 kg/ha", "value": 8.0}, {"measurement": "Herbicide rating ECHCG", "setting": "[9]; 0.2000 kg/ha", "value": 8.0}, {"measurement": "Herbicide rating ECHCG", "setting": "[9]; 0.4000 kg/ha", "value": 9.0}, {"measurement": "Herbicide rating ECHCG", "setting": "[9]; 0.8000 kg/ha", "value": 9.0}, {"measurement": "Herbicide rating ABUTH", "setting": "[10]; 0.0500 kg/ha", "value": 1.0}, {"measurement": "Herbicide rating ABUTH", "setting": "[10]; 0.1000 kg/ha", "value": 0.0}, {"measurement": "Herbicide rating ABUTH", "setting": "[10]; 0.2000 kg/ha", "value": 5.0}, {"measurement": "Herbicide rating ABUTH", "setting": "[10]; 0.4000 kg/ha", "value": 5.0}, {"measurement": "Herbicide rating ABUTH", "setting": "[10]; 0.8000 kg/ha", "value": 6.0}, {"measurement": "Herbicide rating IPOSS", "setting": "[11]; 0.2000 kg/ha", "value": 0.0}, {"measurement": "Herbicide rating IPOSS", "setting": "[11]; 0.4000 kg/ha", "value": 0.0}, {"measurement": "Herbicide rating IPOSS", "setting": "[11]; 0.8000 kg/ha", "value": 0.0}, {"measurement": "Herbicide rating ORYSAT", "setting": "[12]; 0.2000 kg/ha", "value": 0.0}, {"measurement": "Herbicide rating ORYSAT", "setting": "[12]; 0.4000 kg/ha", "value": 0.0}, {"measurement": "Herbicide rating ORYSAT", "setting": "[12]; 0.8000 kg/ha", "value": 0.0}, {"measurement": "Herbicide rating PANDI", "setting": "[13]; 0.2000 kg/ha", "value": 2.0}, {"measurement": "Herbicide rating PANDI", "setting": "[13]; 0.4000 kg/ha", "value": 7.0}, {"measurement": "Herbicide rating PANDI", "setting": "[13]; 0.8000 kg/ha", "value": 7.0}, {"measurement": "Herbicide rating SETVI", "setting": "[14]; 0.2000 kg/ha", "value": 3.0}, {"measurement": "Herbicide rating SETVI", "setting": "[14]; 0.4000 kg/ha", "value": 0.0}, {"measurement": "Herbicide rating SETVI", "setting": "[14]; 0.8000 kg/ha", "value": 3.0}, {"measurement": "Herbicide rating ZEAMX", "setting": "[15]; 0.2000 kg/ha", "value": 0.0}, {"measurement": "Herbicide rating ZEAMX", "setting": "[15]; 0.4000 kg/ha", "value": 0.0}, {"measurement": "Herbicide rating ZEAMX", "setting": "[15]; 0.8000 kg/ha", "value": 0.0}, {"measurement": "Herbicide rating GOSHI", "setting": "[16]; 0.2000 kg/ha", "value": 0.0}, {"measurement": "Herbicide rating GOSHI", "setting": "[16]; 0.4000 kg/ha", "value": 0.0}, {"measurement": "Herbicide rating GOSHI", "setting": "[16]; 0.8000 kg/ha", "value": 0.0}, {"measurement": "Herbicide rating CHEAL", "setting": "[17]; 0.2000 kg/ha", "value": 6.0}, {"measurement": "Herbicide rating CHEAL", "setting": "[17]; 0.4000 kg/ha", "value": 7.0}, {"measurement": "Herbicide rating CHEAL", "setting": "[17]; 0.8000 kg/ha", "value": 9.0}, {"measurement": "Herbicide rating AMBEL", "setting": "[18]; 0.2000 kg/ha", "value": 0.0}, {"measurement": "Herbicide rating AMBEL", "setting": "[18]; 0.4000 kg/ha", "value": 3.0}, {"measurement": "Herbicide rating AMBEL", "setting": "[18]; 0.8000 kg/ha", "value": 6.0}, {"measurement": "Herbicide rating ECHCG", "setting": "[19]; 0.2000 kg/ha", "value": 0.0}, {"measurement": "Herbicide rating ECHCG", "setting": "[19]; 0.4000 kg/ha", "value": 0.0}, {"measurement": "Herbicide rating ECHCG", "setting": "[19]; 0.8000 kg/ha", "value": 0.0}, {"measurement": "Herbicide rating ABUTH", "setting": "[20]; 0.2000 kg/ha", "value": 0.0}, {"measurement": "Herbicide rating ABUTH", "setting": "[20]; 0.4000 kg/ha", "value": 0.0}, {"measurement": "Herbicide rating ABUTH", "setting": "[20]; 0.8000 kg/ha", "value": 9.0}]}
